# Read-outs that look alike come from different tables or passages of the source. Marks after values point to notes of the source that are not given here.
# Assays:
# Hepatitis B Virus = experiment: Hepatitis B virus secretion by chronically HBV secreting HepG2.2.15 cells (immunoprecipitated virion DNA, PCR); assay type: cell-based; conditions: for [] for 90% HBV secretion inhibition: based upon duplicate PCR results; for Relative amount of HBV secreted As A % of Control: 3 days, preS1 immunoprecipitation, PCR
# Procedure: (§1) The anti-hepatitis B virus activity and effect on cell viability of a number of different N-substituted-1,5-dideoxy-1,5-imino-D-glucitol compounds were assessed using an in vitro assay employing chronically hepatitis B virus secreting HepG2.2.15 cells. The method employed was essentially that described in Block et al. (1994) Proc. Natl. Acad. Sci. USA 91:2235-2239.
# HepG2.2.15 Cells [1] = experiment: Viability of HepG2.2.15 cells, trypan blue exclusion; assay type: cell-based; conditions: 3 days, cells excluding trypan blue
# Procedure: as §1
# HBV = experiment: Cell culture experiments with N-nonyl-DNJ: total HBV DNA and immune precipitated DNA; assay type: cell-based, hepatitis B virus
# Excerpt: (§2) There are two measures of drug efficacy: reduction in total HBV DNA (measured by quantitative PCR), and reduction in HBV DNA from capsids with intact surface glycoproteins, which is the active form of the virus (measured by an ELISA-like immune precipitation assay followed by quantitative PCR).
# [2] = test system: woodchuck hepatitis virus (WHV); experiment: Woodchuck model, N-nonyl-DNJ alone, BID oral dosing; assay type: in vivo
# Excerpt: In order to evaluate the efficacy of N-nonyl-DNJ in combination with 3TC (or other nucleoside or nucleotide analogs) against Hepatitis B virus in a woodchuck animal model, an monotherapy experiment using N-nonyl-DNJ alone was first conducted. This was necessary to determine if N-nonyl-DNJ has any anti-HBV effect in the woodchuck and, if N-nonyl-DNJ has a beneficial effect, to design a combination study based on the dose-response relationship of this drug alone.
# Therefore, five groups of four animals each (all groups had both sexes, all but the control had two of each sex) were assigned to 0, 12.5, 25, 50, and 100 mg/kg/day with BID oral dosing. These were lab-reared wild animals. All animals were infected with woodchuck hepatitis virus (WHV) as neonates, and had been tested positive on serological tests for WHV surface antigen. Blood samples were drawn one week prior to dosing (−1 week), immediately before dosing (0 weeks), weekly during dosing (1, 2, 3, and 4 weeks), and after the end of dosing (5, 6, 8, and 10 weeks).
# as §2
# Before models are fitted to the data, a log transform was applied because: 1) the variation in IPDNA increases with increasing IPDNA values; the log transformation gives values with a nearly constant variation, and 2) it is expected that drug effects will appear as a constant multiplier of the IPDNA level. Because there are zero values of IPDNA, a small value (about ½ of the smallest non-zero value) was added to all values before the log transform.
# Two approaches were used to model the changes in slope to week with dose of N-nonyl-DNJ: a linear modeling approach and a nonlinear model. Both approaches assume that the (linear) rate of change of the Log(IPDNA) measure over the dosing period is the “right” measure to reflect the effect of the drug on the virus. Both approaches are fit in stages, and the first stage is common to both approaches. First, a simple straight line regression model is fit using weeks 0-4 to predict log(IPDNA_+—10) separately for each animal by run combination. In the second stage, the response variable is the slope fitted in the first stage.
# For the linear approach, a model is fit with slope to week as the response where run is considered a block, dose has a significant effect (almost all of this effect is due to a slope to dose), and the relevant error for testing the effect of dose is the variation among animals treated alike (after the adjustment for the runs as blocks). This is similar to using the calibration data within each run to first adjust each run's data to a common virus DNA concentration; the difference is that here the data from the woodchucks are used for the run adjustment rather than only the calibration data.
# For the nonlinear approach, a four parameter logistic model is fit with the slope to week as the response and the dose as the predictor. Again, run is considered a block, but because no run has all weeks, it is not possible to fully reflect the blocking in the nonlinear approach. […]
# HepG2.2.15 Cells [3] = experiment: MTT-based colorimetric assay of cell viability
# Procedure: as §1
compound,measurement,setting,value
"CCCCN1C[C@H](OC(C)=O)[C@@H](OC(C)=O)[C@H](OC(C)=O)[C@H]1COC(C)=O [Example 2, 1,5-(Butylimino)-1,5-dideoxy-D-glucitol, Tetraacetate]",[] for 90% HBV secretion inhibition,Hepatitis B Virus,>200*s* microgs per ml
same,Relative amount of HBV secreted As A % of Control,Hepatitis B Virus; concentration [200],107.0 +/− 12 (n = 3) %
same,Relative amount of HBV secreted As A % of Control,Hepatitis B Virus; concentration [1000],38.0 +/− 15 (n = 3) %
same,% Viable +/− 1 S.D.,HepG2.2.15 Cells [1]; concentration [200],90 +/− 6 (n = 4) %
same,% Viable +/− 1 S.D.,HepG2.2.15 Cells [1]; concentration [1000],89 +/− 4 (n = 4) %
"CCCCCCCCCN1C[C@H](O)[C@@H](O)[C@H](O)[C@H]1CO [N-nonyl-DNJ, N-(n-nonyl)-1,5-dideoxy-1,5-imino-D-glucitol]",effect on the immune precipitated DNA (IPDNA),HBV,marked effect
same,effect on total HBV DNA,HBV,little or no effect
same,effect on total HBV DNA measurements,"[2]; all dose levels, pre-dose and dosed portions, quantitative PCR",no effect
same,average minimum slope observed,"[2]; decrease of IPDNA, dosing weeks 0-4",0.31 fewer Log(IPDNA g/mL)/week
same,decrease of IPDNA at average minimum slope,[2]; dosing weeks 0-4,about 25 %/week
same,slope of IPDNA levels over the dosing period due to dose or plasma level,"[2]; weeks 0-4, straight line fitted per animal",significant difference in the slope
same,approximate effective monotherapy dose,[2]; woodchucks,about 16 mg/kg/day
"CCCCN1C[C@H](O)[C@@H](O)[C@H](O)[C@H]1CO [NBDNJ, N-(n-butyl-)-1,5-dideoxy-1,5-imino-D-glucitol]",[] for 90% HBV secretion inhibition,Hepatitis B Virus,0.5-1.0* microgs per ml
same,Relative amount of HBV secreted As A % of Control,Hepatitis B Virus; concentration [200],37.0 +/− 13 (n = 15) %
same,Relative amount of HBV secreted As A % of Control,"Hepatitis B Virus; concentration [200], listed as 1",85.0 +/− 5 (n = 8) %
same,Relative amount of HBV secreted As A % of Control,Hepatitis B Virus; concentration [1000],3.2 +/− 5 (n = 15) %
same,Relative amount of HBV secreted As A % of Control,"Hepatitis B Virus; concentration [1000], listed as 1",35.0 +/− 6 (n = 8) %
same,[] for a 50% reduction in MMT,HepG2.2.15 Cells [3],100-200 microgs per ml
N-[2-(4-Trifluoromethylphenyl)-ethyl]-glucamine [Example 7],[] for 90% HBV secretion inhibition,Hepatitis B Virus,>200** microgs per ml
same,[] for a 50% reduction in MMT,HepG2.2.15 Cells [3]; HepG2.2.15 cells,>200 microgs per ml

# — patent US6747149B2, “Glucamine salts for treating hepatitis virus infections” (G. D. Searle & Co., priority 1999, dated 2004)
